Source: patent US20240050590A1, “METHODS AND COMPOSITIONS TO REGULATE CHOLESTEROL EFFLUX TO PREVENT, TREAT, OR CURE MACULAR DEGENERATION” (The Trustees of Columbia University in the City of New York, priority 2021, published 2024)
Entries after “also recorded” stand apart in the source; their conditions may differ.

Legend:
Assay type in all cases: cell-based, human
[1] = system: CES1 expression in EFEMP1^WT iRPE cells; test: Western blot of CES1 expression in normal (EFEMP1^WT) iRPE cells after treatment with agonists and antagonists; settings: EFEMP1^WT iRPE cells from healthy donor, 72 h treatment, vs untreated control; LY294002 10 μM, GW4064 5 μM, GW3965 3 μM
Experimental: (§1) Immunoblot To verify the differentiation of iRPE, CRALBP (Ab15051, Abcam) and RPE65 (401.8B11.3D9, Novas Biologicals) antibodies were used to detect mature RPE markers including CRALBP and RPE65 in iRPE cell lysates via western blot. To determine EFEMP1 expression in iRPE, both cell lysates and culture supernatant were assayed using anti-EFEMP1 antibody (MA5-25740, Thermo Fisher Scientific). To detect CES1 expression in iRPE, anti-CES1 antibody (AF4920, R&D) was used. Anti-alpha tubulin (T5168, Sigma Aldrich), anti-beta actin (A5316, Sigma), or anti-GAPDH (5174, Cell Signaling) antibodies were used to detect house-keeping proteins. The cell lysates were collected using RIPA buffer (Thermo Fisher Scientific).
To understand the upstream regulators of CES1 expression, the iRPE cells from healthy donor were treated with Gefitnib ([…], Sigma Aldrich), ML385 ([…], Sigma Aldrich), LY294002 (10 μM, Sigma Aldrich), GW4064 (5 μM, Sigma Aldrich), or GW3965 (3 μM, Sigma Aldrich) for 72 h. Anti-CES1 (AF4920, R&D) and anti-alpha tubulin (T5168, Sigma Aldrich) antibodies were used to detect CES1 and tubulin expression, respectively. The signal was detected using Immobilon Western Chemiluminescent HRP Substrate (Millipore). The blot was quantified using ImageJ for signal intensity.

[2] = system: CES1 expression in EFEMP1^R345W iRPE cells; test: Western blot of CES1 expression in EFEMP1^R345W iRPE cells treated with EGF; settings: 100 nM EGF, 72 h incubation, vs untreated cells
Experimental: as §1

[3] = system: iRPE cells; test: Nile red staining and quantification of intracellular lipid droplets in iRPE cells; design: amount of lipid droplets: dose or concentration left out as unconfirmed; settings: EFEMP1^R345W iRPE, 2 weeks, vs untreated
Experimental: Nile red staining To stain the intracellular neutral lipid, the iRPE cell cultures were treated with […] Nile red (Sigma Aldrich) for 30 min at 37° C. The cells were washed with PBS three times before microscopy observation.
Since mature iRPE culture is usually 100% confluent, the Nile red-positively stained lipid droplets were quantified using ImageJ in a fixed area of 90,000 square micrometers for the number and size of Nile red-positive signals. Fluorescent particles smaller than 0.0001 square micrometers was excluded as noise.
(§2) Lentiviral transduction For the knockdown of CES1 (MIM: 114835) in iRPE cells, the iRPE cells from healthy donor were cultured in 6-well plate. The lentiviral particles carrying CES1 shRNA (Locus ID 1066, Origene) were transduced into the iRPE cells at a MOI of 10 overnight. To establish fair comparison, the control iRPE cells were transduced with viral particles expressing scramble shRNA. The medium was refreshed the following day, and the cell were incubated for 7 days before analysis. To achieve overexpression of CES1 in iRPE cells, lentiviral particles (Origene) expressing CMV promoter-driven CES1 (GenBank: NM_001025194) were transduced following the same procedure.

[4] = system: iRPE cells; test: Cholesterol efflux assay in iRPE cells; design: dose or concentration left out as unconfirmed; settings: EFEMP1^R345W iRPE
Experimental: Cholesterol efflux assay Cholesterol Efflux Assay Kit (Abcam) was used to determine the cholesterol efflux rate in iRPE according to the manufacturer's protocol. In brief, fluorescence-labeled cholesterol was added to iRPE culture and incubated overnight. On the next day, the cells were washed twice with PBS, and the efflux of cholesterol was induced by 2% human serum. At designated time points, the culture supernatant and cell lysate were collected and measured by fluorescence at Ex/Em: 482/515 nm. The percentage of cholesterol efflux was calculated by fluorescence intensity of media fluorescence/(fluorescence intensity of cell lysate+media)×100.
as §2

Q: For `O=C(O)Cc1cccc(OCCCN(Cc2cccc(C(F)(F)F)c2Cl)CC(c2ccccc2)c2ccccc2)c1` [GW3965], which “CES1 expression level (western blot)” value [1] is on record?
A: no change in CES1 expression

Q: For `CC(C)c1onc(-c2c(Cl)cccc2Cl)c1COc1ccc(/C=C/c2cccc(C(=O)O)c2)c(Cl)c1` [GW4064], which “CES1 expression level (western blot)” value [1] is on record?
A: no change in CES1 expression

Q: For `Cc1ccccc1C(=O)N1CCc2cc(-c3nc(NC(=O)Cc4ccc5c(c4)OCO5)sc3C)ccc21` [ML385], which “CES1 expression level (western blot)” value [1] is on record?
A: only LY294002 reduced CES1 expression

Q: Which “CES1 expression level (western blot)” value [1] does the source give for `COc1cc2ncnc(Nc3ccc(F)c(Cl)c3)c2cc1OCCCN1CCOCC1` [gefitinib] here?
A: remarkably reduced

Q: How did the “CES1 level (western blot)” value [2] turn out when epidermal growth factor [EGF] was run?
A: remarkably higher

Q: And the lipid droplet size ([3]; 100 mM EGF)?
A: not obvious

Q: What about the “amount of lipid droplets” value ([3]; EGF) of the same compound?
A: significant decrease; also recorded: ameliorates intracellular lipid droplet accumulation

Q: What about the “cholesterol efflux (in words)” value ([4]; EGF for two weeks, vs untreated) of the same compound?
A: improve cholesterol efflux

Q: And the “increase in cholesterol efflux” value ([4]; EGF, 2 weeks, vs untreated control)?
A: 26%
